Where two headings read alike, the source gives them in different places.
What was measured:
Assay in all cases: Antibacterial activity, MIC by microdilution broth method (CLSI)
E. faecium = format: cell-based, Enterococcus faecium
E. faecalis = format: cell-based; details: for MIC: Enterococcus faecalis; for MIC (range over strains): clinically isolated E. faecalis (15 strains)
S. aureus = format: cell-based, Staphylococcus aureus; details: for MIC: Staphylococcus aureus; for MIC (range over strains): clinically isolated MRSA (10 strains)
[1] = Enterococcus faecium, ATCC35667, 20 h, E. faecium ATCC 35667, CA-MHB, 37 °C, 20 h, read-out: MIC
[2] = Enterococcus faecium, ATCC 51559 / VRE, E. faecium (VRE) ATCC 51559, read-out: MIC
[3] = Enterococcus faecium, ATCC 51858 / VRE, E. faecium (VRE) ATCC 51858, read-out: MIC
[4] = Enterococcus faecium, clinically isolated E. faecium strain 1, read-out: MIC
[5] = Enterococcus faecium, clinically isolated E. faecium strain 2, read-out: MIC
[6] = Enterococcus faecium, clinically isolated E. faecium strain 3, read-out: MIC
[7] = Enterococcus faecium, clinically isolated E. faecium strain 4, read-out: MIC
[8] = Enterococcus faecium, clinically isolated E. faecium strain 5, read-out: MIC
[9] = Enterococcus faecium, clinically isolated E. faecium strain 7, read-out: MIC
[10] = Enterococcus faecium, clinically isolated E. faecium strain 8, read-out: MIC
[11] = Enterococcus faecium, clinically isolated E. faecium strain 9, read-out: MIC
[12] = Enterococcus faecium, clinically isolated E. faecium strain 10, read-out: MIC
[13] = Enterococcus faecium, clinically isolated E. faecium strain 11, read-out: MIC
[14] = Enterococcus faecium, clinically isolated E. faecium strain 13, read-out: MIC
[15] = Enterococcus faecium, clinically isolated E. faecium strain 14, read-out: MIC
[16] = Enterococcus faecium, clinically isolated E. faecium strain 15, read-out: MIC
[17] = ATCC 51299 / VRE, E. faecalis (VRE) ATCC 51299
[18] = clinically isolated E. faecalis strain 21
[19] = clinically isolated E. faecalis strain 22
[20] = clinically isolated E. faecalis strain 23
[21] = clinically isolated E. faecalis strain 24
[22] = clinically isolated E. faecalis strain 25
[23] = clinically isolated E. faecalis strain 26
[24] = clinically isolated E. faecalis strain 27
[25] = clinically isolated E. faecalis strain 28
[26] = clinically isolated E. faecalis strain 29
[27] = clinically isolated E. faecalis strain 30
[28] = clinically isolated E. faecalis strain 31
[29] = clinically isolated E. faecalis strain 32
[30] = clinically isolated E. faecalis strain 33
[31] = clinically isolated E. faecalis strain 34
[32] = clinically isolated E. faecalis strain 35
[33] = ATCC29213, 20 h, S. aureus ATCC 29213, CA-MHB, 37 °C, 20 h
[34] = MRSA, 20 h, S. aureus (MRSA) JE2, CA-MHB, 37 °C, performed once
[35] = MRSA, clinically isolated MRSA #1958
[36] = MRSA, clinically isolated MRSA #2071
[37] = MRSA, clinically isolated MRSA #2110
[38] = MRSA, clinically isolated MRSA #2310
[39] = MRSA, clinically isolated MRSA #2334
[40] = MRSA, clinically isolated MRSA #2931
[41] = MRSA, clinically isolated MRSA #2932
[42] = MRSA, clinically isolated MRSA #2933
[43] = MRSA, clinically isolated MRSA #2934
[44] = MRSA, clinically isolated MRSA #2935

C[C@H]1COc2c(N3CCN(C)CC3)c(F)cc3c(=O)c(C(=O)O)cn1c23 [Levofloxacin]
32 µg/mL: MIC (E. faecium; [8])
> 32 µg/mL: MIC (E. faecium; [4]) | MIC (E. faecium; [5]) | MIC (E. faecium; [6]) | MIC (E. faecium; [7]) | MIC (E. faecium; [10]) | MIC (E. faecium; [11]) | MIC (E. faecium; [12]) | MIC (E. faecium; [13]) | MIC (E. faecium; [14]) | MIC (E. faecium; [15]) | MIC (E. faecium; [16]) | MIC (S. aureus; [35]) | MIC (S. aureus; [37]) | MIC (S. aureus; [38]) | MIC (S. aureus; [39]) | MIC (S. aureus; [41]) | MIC (S. aureus; [42]) | MIC (S. aureus; [43]) | MIC (S. aureus; [44])
4 µg/mL: MIC (E. faecium; [1]) | MIC (E. faecium; [3])
0.13 µg/mL: MIC (S. aureus; [33]) | MIC (S. aureus; [36])
0.5 to 2 µg/mL: MIC (range over strains) (E. faecalis)
0.5 µg/mL: MIC (E. faecium; [9]) | MIC (E. faecalis; [18]) | MIC (E. faecalis; [22]) | MIC (E. faecalis; [23]) | MIC (E. faecalis; [26])
2 µg/mL: MIC (E. faecalis; [32])
16 µg/mL: MIC (E. faecium; [2]) | MIC (S. aureus; [40])
8 µg/mL: MIC (S. aureus; [34])
1 µg/mL: MIC (E. faecalis; [17]) | MIC (E. faecalis; [19]) | MIC (E. faecalis; [20]) | MIC (E. faecalis; [21]) | MIC (E. faecalis; [24]) | MIC (E. faecalis; [25]) | MIC (E. faecalis; [27]) | MIC (E. faecalis; [28]) | MIC (E. faecalis; [29]) | MIC (E. faecalis; [30]) | MIC (E. faecalis; [31])

CN[C@H](CC(C)C)C(=O)N[C@H]1C(=O)N[C@@H](CC(N)=O)C(=O)N[C@H]2C(=O)N[C@H]3C(=O)N[C@H](C(=O)N[C@H](C(=O)O)c4cc(O)cc(O)c4-c4cc3ccc4O)[C@H](O)c3ccc(c(Cl)c3)Oc3cc2cc(c3O[C@@H]2O[C@H](CO)[C@@H](O)[C@H](O)[C@H]2O[C@H]2C[C@](C)(N)[C@H](O)[C@H](C)O2)Oc2ccc(cc2Cl)[C@H]1O [Vancomycin]
1 to 4 µg/mL: MIC (range over strains) (E. faecalis)
4 µg/mL: MIC (E. faecalis; [28])
2 µg/mL: MIC (E. faecalis; [30]) | MIC (S. aureus; [37]) | MIC (S. aureus; [38]) | MIC (S. aureus; [39]) | MIC (S. aureus; [41]) | MIC (S. aureus; [44])
1 to 2 µg/mL: MIC (range over strains) (S. aureus)
> 128 µg/mL: MIC (E. faecium; [2])
128 µg/mL: MIC (E. faecium; [3]) | MIC (E. faecalis; [17])
0.5 µg/mL: MIC (E. faecium; [1]) | MIC (E. faecium; [9]) | MIC (E. faecium; [15])
>128 µg/mL: MIC (E. faecium; E. faecium (VRE) ATCC 51559)
1 µg/mL: MIC (E. faecium; [4]) | MIC (E. faecium; [5]) | MIC (E. faecium; [6]) | MIC (E. faecium; [7]) | MIC (E. faecium; [8]) | MIC (E. faecium; [10]) | MIC (E. faecium; [11]) | MIC (E. faecium; [12]) | MIC (E. faecium; [13]) | MIC (E. faecium; [14]) | MIC (E. faecium; [16]) | MIC (E. faecalis; [18]) | MIC (E. faecalis; [19]) | MIC (E. faecalis; [20]) | MIC (E. faecalis; [21]) | MIC (E. faecalis; [22]) | MIC (E. faecalis; [23]) | MIC (E. faecalis; [24]) | MIC (E. faecalis; [25]) | MIC (E. faecalis; [26]) | MIC (E. faecalis; [27]) | MIC (E. faecalis; [29]) | MIC (E. faecalis; [31]) | MIC (E. faecalis; [32]) | MIC (S. aureus; [33]) | MIC (S. aureus; [34]) | MIC (S. aureus; [35]) | MIC (S. aureus; [36]) | MIC (S. aureus; [40]) | MIC (S. aureus; [42]) | MIC (S. aureus; [43])
0.5 to 1 µg/mL: MIC (range over strains) (E. faecium; clinically isolated E. faecium (14 strains))

CC1(C)S[C@@H]2[C@H](NC(=O)[C@H](N)c3ccccc3)C(=O)N2[C@H]1C(=O)O [Ampicillin]
> 128 µg/mL: MIC (E. faecium; Enterococcus faecium, clinically isolated E. faecium strain 1) | MIC (E. faecium; Enterococcus faecium, clinically isolated E. faecium strain 3) | MIC (E. faecium; Enterococcus faecium, clinically isolated E. faecium strain 9) | MIC (E. faecium; Enterococcus faecium, clinically isolated E. faecium strain 10) | MIC (E. faecium; Enterococcus faecium, clinically isolated E. faecium strain 13)
0.5 µg/mL: MIC (E. faecium; [9]) | MIC (E. faecalis; [21]) | MIC (E. faecalis; [27]) | MIC (E. faecalis; [32])
16 to 32 µg/mL: MIC (range over strains) (S. aureus)
1 µg/mL: MIC (E. faecium; [1]) | MIC (E. faecalis; [17]) | MIC (E. faecalis; [18]) | MIC (E. faecalis; [19]) | MIC (E. faecalis; [20]) | MIC (E. faecalis; [22]) | MIC (E. faecalis; [23]) | MIC (E. faecalis; [24]) | MIC (E. faecalis; [25]) | MIC (E. faecalis; [26]) | MIC (E. faecalis; [28]) | MIC (E. faecalis; [29]) | MIC (E. faecalis; [30]) | MIC (E. faecalis; [31]) | MIC (S. aureus; [33])
4 µg/mL: MIC (S. aureus; [34])
16 µg/mL: MIC (S. aureus; [37]) | MIC (S. aureus; [39]) | MIC (S. aureus; [43]) | MIC (S. aureus; [44])
32 µg/mL: MIC (S. aureus; [35]) | MIC (S. aureus; [36]) | MIC (S. aureus; [38]) | MIC (S. aureus; [40]) | MIC (S. aureus; [41]) | MIC (S. aureus; [42])
0.5 to 1 µg/mL: MIC (range over strains) (E. faecalis)
128 µg/mL: MIC (E. faecium; Enterococcus faecium, ATCC 51559 / VRE, E. faecium (VRE) ATCC 51559) | MIC (E. faecium; Enterococcus faecium, ATCC 51858 / VRE, E. faecium (VRE) ATCC 51858) | MIC (E. faecium; Enterococcus faecium, clinically isolated E. faecium strain 2) | MIC (E. faecium; Enterococcus faecium, clinically isolated E. faecium strain 4) | MIC (E. faecium; Enterococcus faecium, clinically isolated E. faecium strain 5) | MIC (E. faecium; Enterococcus faecium, clinically isolated E. faecium strain 8) | MIC (E. faecium; Enterococcus faecium, clinically isolated E. faecium strain 11) | MIC (E. faecium; Enterococcus faecium, clinically isolated E. faecium strain 14) | MIC (E. faecium; Enterococcus faecium, clinically isolated E. faecium strain 15)

— article PMC9768162, “Synthesis of macrocyclic nucleoside antibacterials and their interactions with MraY” (Nature Communications, 2022)
